Target: T1, SMYD3 (Homo sapiens, UniProt Q9H7B4)
T1 sequence (Q9H7B4 1-428): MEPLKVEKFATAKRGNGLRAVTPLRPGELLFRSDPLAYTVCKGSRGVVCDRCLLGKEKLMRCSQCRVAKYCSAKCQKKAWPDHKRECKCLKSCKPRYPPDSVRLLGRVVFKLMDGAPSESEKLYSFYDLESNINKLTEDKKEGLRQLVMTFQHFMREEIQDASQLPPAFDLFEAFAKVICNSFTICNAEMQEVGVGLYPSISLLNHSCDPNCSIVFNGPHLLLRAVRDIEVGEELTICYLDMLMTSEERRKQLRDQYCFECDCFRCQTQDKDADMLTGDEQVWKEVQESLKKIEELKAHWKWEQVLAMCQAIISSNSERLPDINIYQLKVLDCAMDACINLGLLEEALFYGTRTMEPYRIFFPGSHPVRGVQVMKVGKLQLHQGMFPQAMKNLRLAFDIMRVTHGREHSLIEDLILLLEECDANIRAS
Assay: SMYD3 biochemical assay (MTase-Glo, MAP3K2 peptide substrate)
Conditions: Table 3; MTase assay, MAP3K2 peptide substrate; read-out: IC50
Description: A SMYD3 enzymatic assay was developed using Promega's Methyltransferase-Glo™ reagents. In the assay, SMYD3 catalyzes the methylation of the MAP3K2 peptide substrate by transferring a methyl group from SAM to MAP3K2 peptide and further converts the SAM to SAH. The SMYD3 methyltransferase activity is measured based on the amount of SAH produced from the reaction through the use of coupling enzymes that convert the SAH to ATP. The MTase-Glo detection solution then catalyzes the formation of light from ATP.
A final concentration of 1.0 μM and 10 μM SAM and MAP3K2 peptide were added and further incubated for 30 min at room temperature before adding the MTase Glo and detection reagent. Reaction signals were detected using microplate readers on luminescent mode (Safire Tecan). The IC50 was determined by non-linear regression, using GraphPad Prism version, 5.03.

For `CCCOC(=O)N1CCN(C(=O)c2ccc3c(Cl)c4c(nc3c2)CC(c2ccccn2)CC4)CC1` (single isomer, unassigned) [A053 (Ent-1), Propyl (R/S)-4-(9-chloro-6-(pyridin-2-yl)-5,6,7,8-tetrahydroacridine-3-carbonyl)piperazine-1-carboxylate], which IC50 is on record?
The IC50 was 0.12 µM.

For `CCCOC(=O)N1CCN(C(=O)c2ccc3c(Cl)c4c(nc3c2)CC(c2ccccn2)CC4)CC1` (single isomer, unassigned) [A053 (Ent-2), Propyl (R/S)-4-(9-chloro-6-(pyridin-2-yl)-5,6,7,8-tetrahydroacridine-3-carbonyl)piperazine-1-carboxylate], which IC50 is on record?
The IC50 was 0.24 µM.

With `CCCOC(=O)N1CCN(C(=O)c2ccc3c(Cl)c4c(nc3c2)CCCC4)CC1` [A001, Propyl 4-(9-chloro-5,6,7,8-tetrahydroacridine-3-carbonyl)piperazine-1-carboxylate] as the molecule, how does the IC50 read?
The IC50 was 0.4 µM.

How did the IC50 turn out when `C=CCOC(=O)N1CCN(C(=O)c2ccc3c(Cl)c4c(nc3c2)CCCC4)CC1` [A002, Allyl 4-(9-chloro-5,6,7,8-tetrahydroacridine-3-carbonyl)piperazine-a1-carboxylate] was run?
Its IC50 is 1 µM.

How did the IC50 turn out when `CCCCC(=O)N1CCN(C(=O)c2ccc3c(Cl)c4c(nc3c2)CCCC4)CC1` [A003, 1-(4-(9-Chloro-5,6,7,8-tetrahydroacridine-3-carbonyl)piperazin-1-yl)pentan-1-one] was run?
Its IC50 is 1.52 µM.

For `CCCOC(=O)N1CC2CCC(C1)N2C(=O)c1ccc2c(Cl)c3c(nc2c1)CCCC3` [A004, Propyl 8-(9-chloro-5,6,7,8-tetrahydroacridine-3-carbonyl)-3,8-diazabicyclo[3.2.1]octane-3-carboxylate], which IC50 is on record?
The IC50 was 0.35 µM.

`CCCOC(=O)N1CC2CCC1CN2C(=O)c1ccc2c(Cl)c3c(nc2c1)CCCC3` (stereo not shown) [A005, Propyl 5-(9-chloro-5,6,7,8-tetrahydroacridine-3-carbonyl)-2,5-diazabicyclo[2.2.2]octane-2-carboxylate] was tested. Which IC50 did it give?
The IC50 was 4.5 µM.

How did the IC50 turn out when `O=C(c1ccc2c(Cl)c3c(nc2c1)CCCC3)N1CCN(C(=O)c2cc(C3CC3)on2)CC1` [A006, (9-Chloro-5,6,7,8-tetrahydroacridin-3-yl)(4-(5-cyclopropylisoxazole-3-carbonyl)piperazin-1-yl)methanone] was run?
Its IC50 is 6.7 µM.

For `CC(C)Cc1cc(C(=O)N2CCN(C(=O)c3ccc4c(Cl)c5c(nc4c3)CCCC5)CC2)no1` [A007, (9-Chloro-5,6,7,8-tetrahydroacridin-3-yl)(4-(5-isobutylisoxazole-3-carbonyl)piperazin-1-yl)methanone], which IC50 is on record?
The IC50 was 6.9 µM.

With `CCCOC(=O)N1CCN(C(=O)c2ccc3c(Cl)c4c(nc3c2)CCC(C)C4)CC1` (stereo not shown) [A008, Propyl 4-(9-chloro-7-methyl-5,6,7,8-tetrahydroacridine-3-carbonyl)piperazine-1-carboxylate] as the molecule, how does the IC50 read?
Its IC50 is 1.3 µM.

`CCCOC(=O)N1C2CCC1CN(C(=O)c1ccc3c(Cl)c4c(nc3c1)CCCC4)C2` [A009, Propyl 3-(9-chloro-5,6,7,8-tetrahydroacridine-3-carbonyl)-3,8-diazabicyclo[3.2.1]octane-8-carboxylate] was tested. Which IC50 did it give?
The IC50 was 0.36 µM.

`CCCOC(=O)N1CCN(C(=O)c2ccc3c(Cl)c4c(nc3c2)CCCC4)[C@@H](C)C1` [A010, Propyl (S)-4-(9-chloro-5,6,7,8-tetrahydroacridine-3-carbonyl)-3-methylpiperazine-1-carboxylate] was tested. Which IC50 did it give?
The IC50 was 0.19 µM.

`CCCOC(=O)N1CCN(C(=O)c2ccc3c(Cl)c4c(nc3c2)CCCC4)[C@H](C)C1` [A011, Propyl (R)-4-(9-chloro-5,6,7,8-tetrahydroacridine-3-carbonyl)-3-methylpiperazine-1-carboxylate] was tested. Which IC50 did it give?
Its IC50 is 0.3 µM.

For `Cc1cc(C(=O)N2CCN(C(=O)c3ccc4c(Cl)c5c(nc4c3)CCCC5)CC2)no1` [A012, (9-Chloro-5,6,7,8-tetrahydroacridin-3-yl)(4-(5-methylisoxazole-3-carbonyl)piperazin-1-yl)methanone], which IC50 is on record?
The IC50 was 1.67 µM.

For `CCCOC(=O)N1C2CCCC1CN(C(=O)c1ccc3c(Cl)c4c(nc3c1)CCCC4)C2` [A013, Propyl 3-(9-chloro-5,6,7,8-tetrahydroacridine-3-carbonyl)-3,9-diazabicyclo[3.3.1]nonane-9-carboxylate], which IC50 is on record?
The IC50 was 0.19 µM.

With `CCCOC(=O)N1CC2CC(C1)N2C(=O)c1ccc2c(Cl)c3c(nc2c1)CCCC3` [A014, Propyl 6-(9-chloro-5,6,7,8-tetrahydroacridine-3-carbonyl)-3,6-diazabicyclo[3.1.1]heptane-3-carboxylate] as the molecule, how does the IC50 read?
The IC50 was 1 µM.

With `CCCOC(=O)N1CC2CCCC(C1)N2C(=O)c1ccc2c(Cl)c3c(nc2c1)CCCC3` [A015, Propyl 9-(9-chloro-5,6,7,8-tetrahydroacridine-3-carbonyl)-3,9-diazabicyclo[3.3.1]nonane-3-carboxylate] as the molecule, how does the IC50 read?
Its IC50 is 0.32 µM.

How did the IC50 turn out when `CCCOC(=O)N1CCN(C(=O)c2ccc3c(Cl)c4c(nc3c2)CCCC4)C(CC)C1` (stereo not shown) [A016, Propyl 4-(9-chloro-5,6,7,8-tetrahydroacridine-3-carbonyl)-3-ethylpiperazine-1-carboxylate] was run?
Its IC50 is 0.64 µM.

`CCCOC(=O)N1CC(C)N(C(=O)c2ccc3c(Cl)c4c(nc3c2)CCCC4)CC1C` (stereo not shown) [A017, Propyl 4-(9-chloro-5,6,7,8-tetrahydroacridine-3-carbonyl)-2,5-dimethylpiperazine-1-carboxylate] was tested. Which IC50 did it give?
Its IC50 is 0.29 µM.

For `CCCOC(=O)N1CCN(C(=O)c2ccc3c(Cl)c4c(nc3c2)CCCC4)CC1C` (stereo not shown) [A018, Propyl 4-(9-chloro-5,6,7,8-tetrahydroacridine-3-carbonyl)-2-methylpiperazine-1-carboxylate], which IC50 is on record?
The IC50 was 0.39 µM.

How did the IC50 turn out when `CCCOC(=O)N1C2CC1CN(C(=O)c1ccc3c(Cl)c4c(nc3c1)CCCC4)C2` [A019, Propyl 3-(9-chloro-5,6,7,8-tetrahydroacridine-3-carbonyl)-3,6-diazabicyclo[3.1.1]heptane-6-carboxylate] was run?
The IC50 was 13.1 µM.

Which IC50 does the source give for `CCCOC(=O)N1C(C)CN(C(=O)c2ccc3c(Cl)c4c(nc3c2)CCCC4)CC1C` (stereo not shown) [A020, Propyl 4-(9-chloro-5,6,7,8-tetrahydroacridine-3-carbonyl)-2,6-dimethylpiperazine-1-carboxylate] here?
The IC50 was 0.35 µM.

How did the IC50 turn out when `CC(C)COC(=O)N1CCN(C(=O)c2ccc3c(Cl)c4c(nc3c2)CCCC4)CC1` [A021, Isobutyl 4-(9-chloro-5,6,7,8-tetrahydroacridine-3-carbonyl)piperazine-1-carboxylate] was run?
The IC50 was 0.84 µM.

How did the IC50 turn out when `CCCOC(=O)N1CCN(C(=O)c2ccc3c(Cl)c4c(nc3c2)CC(C)CC4)CC1` (stereo not shown) [A022, Propyl 4-(9-chloro-6-methyl-5,6,7,8-tetrahydroacridine-3-carbonyl)piperazine-1-carboxylate] was run?
The IC50 was 1 µM.

How did the IC50 turn out when `CCCOC(=O)N1CCN(C(=O)c2ccc3c(Cl)c4c(nc3c2)CCCC4C)CC1` (stereo not shown) [A023, Propyl 4-(9-chloro-8-methyl-5,6,7,8-tetrahydroacridine-3-carbonyl)piperazine-1-carboxylate] was run?
The IC50 was 5.2 µM.

How did the IC50 turn out when `CCCOC(=O)N1CCN(C(=O)c2ccc3c(Cl)c4c(nc3c2)CC(c2ccccc2)CC4)CC1` (stereo not shown) [A024, Propyl 4-(9-chloro-6-phenyl-5,6,7,8-tetrahydroacridine-3-carbonyl)piperazine-1-carboxylate] was run?
The IC50 was 1.2 µM.

`CCCOC(=O)N1CCN(C(=O)c2ccc3c(Cl)c4c(nc3c2)CC(C#N)CC4)CC1` (stereo not shown) [A025, Propyl 4-(9-chloro-6-cyano-5,6,7,8-tetrahydroacridine-3-carbonyl)piperazine-1-carboxylate] was tested. Which IC50 did it give?
The IC50 was 1.9 µM.

For `CCCOC(=O)N1CCN(C(=O)c2ccc3c(Cl)c4c(nc3c2)CCCC4C#N)CC1` (stereo not shown) [A026, Propyl 4-(9-chloro-8-cyano-5,6,7,8-tetrahydroacridine-3-carbonyl)piperazine-1-carboxylate], which IC50 is on record?
The IC50 was 3.2 µM.

With `CCCOC(=O)N1CCN(C(=O)c2ccc3c(Cl)c4c(nc3c2)CC(c2cccnc2)CC4)CC1` (stereo not shown) [A027, Propyl 4-(9-chloro-6-(pyridin-3-yl)-5,6,7,8-tetrahydroacridine-3-carbonyl)piperazine-1-carboxylate] as the molecule, how does the IC50 read?
Its IC50 is 0.4 µM.

For `CCCOC(=O)N1CCN(C(=O)c2ccc3c(Cl)c4c(nc3c2)CC(CN)CC4)CC1` (stereo not shown) [A028, Propyl 4-(6-(aminomethyl)-9-chloro-5,6,7,8-tetrahydroacridine-3-carbonyl)piperazine-1-carboxylate], which IC50 is on record?
The IC50 was 0.38 µM.

Which IC50 does the source give for `CCCOC(=O)N1CCN(C(=O)c2ccc3c(Cl)c4c(nc3c2)CCC(C(=O)OC)C4)CC1` (stereo not shown) [A029, Methyl 9-chloro-6-(4-(propoxycarbonyl)piperazine-1-carbonyl)-1,2,3,4-tetrahydroacridine-2-carboxylate] here?
The IC50 was 0.86 µM.

How did the IC50 turn out when `CCCOC(=O)N1CCN(C(=O)c2ccc3c(Cl)c4c(nc3c2)CCCC4)CC1CC` (stereo not shown) [A030, Propyl 4-(9-chloro-5,6,7,8-tetrahydroacridine-3-carbonyl)-2-ethylpiperazine-1-carboxylate] was run?
Its IC50 is 0.63 µM.

For `CCCOC(=O)N1CCN(C(=O)c2ccc3c(Cl)c4c(nc3c2)CCCC4)C(C)C1` (stereo not shown) [A031, Propyl 4-(9-chloro-5,6,7,8-tetrahydroacridine-3-carbonyl)-3-methylpiperazine-1-carboxylate], which IC50 is on record?
Its IC50 is 0.15 µM.

How did the IC50 turn out when `CCCOC(=O)N1CCN(C(=O)c2ccc3c(Cl)c4c(nc3c2)CCCC4)CC1CO` (stereo not shown) [A032, Propyl 4-(9-chloro-5,6,7,8-tetrahydroacridine-3-carbonyl)-2-(hydroxymethyl)piperazine-1-carboxylate] was run?
Its IC50 is 1.2 µM.

From patent US20190071416A1, “COMPOUNDS FOR TREATMENT OF CANCER AND EPIGENETICS” (Agency For Science, Technology and Research, priority 2015, published 2019)
